Test results taken from paper PMC8044163, “Vitamin D and lumisterol derivatives can act on liver X receptors (LXRs)” (Scientific Reports, 2021).

System: murine dermal fibroblasts
Test: RNA-Seq of newborn murine dermal fibroblasts
Assay type: cell-based, mouse
Conditions: 10^−7 M, 24 h
Procedure: All animal studies followed guidelines outlined by the NIH Guide for the Care and Use of Laboratory Animals and protocols were approved by the Institutional Animal Care and Use Committee at the NIEHS or the UAB. […] Skin samples from newborn C57BL/6 mice were collected at the NIEHS. Dermal fibroblasts were isolated from the skin of newborn mice, 1–2 day old. Briefly, we followed the protocols described previously. The skin was washed in PBS, cut into smaller pieces and incubated in 2.4 U/ml of dispase II (Roche) overnight at 4 °C. The dermis was separated from the epidermis and incubated in 0.1% collagenase (Roche) at 4 °C overnight. […] Single cell suspension was prepared by pipetting and draining through a cell strainer. After centrifugation, cell pellets were suspended in DMEM medium containing 10% charcoal-stripped fetal bovine serum (cFBS), mouse fibroblasts growth factor (FGF) and 1% antibiotic, and inoculated into tissue culture dishes (Midwest Scientific, TPP). Cells, in early passages, from different mice were pooled together to provide representative samples for experiments. Fibroblasts were cultured in Petri dishes (10 cm in diameter) in DMEM and 10% cFBS and triplicate semi-confluent cultures were treated as described.
Triplicate cultures of murine fibroblasts were used for RNA isolation (RNAeasy Micro kit, Qiagen), the RNA samples were combined for each condition and at least 200 ng of RNA for each sample was used to create libraries for RNA sequencing by BGI Americas Corporation Service (Cambridge, MA)[67]. Quality of RNA and its concentration were determined using Agilent 2100.
The raw sequence FASTQ files were aligned to Gencode’s GRCm38 p4 Release M11 genome using STAR version 2.5.4b (parameters used: –outReadsUnmapped Fastx; –outSAMtype BAM SortedByCoordinate; –outSAMattributes All; –outFilterIntronMotifs RemoveNoncanonicalUnannotated)[69]. The abundance of transcripts was calculated from the alignments using Cufflinks version 2.2.1 (parameters used: –G; –L; –library-type fr-firststrand). Samples were merged using default parameters with Cuffmerge[70],[71]. The differential expression was calculated using Cuffdiff’s default parameters. The raw data have been deposited at the NCBI GEO (GSE145818).

SMILES: C=C1/C(=C\C=C2/CCC[C@]3(C)[C@@H]([C@H](C)CCCC(C)(C)O)CC[C@@H]23)C[C@@H](O)C[C@@H]1O [1,25(OH)2D3, reference compound]
- Adh7 expression level: 1.042
- Aqp11 expression level: 0.9562
- Arid3b expression level: 1.268
- Bicd1 expression level: 0.7304
- Btc expression level: 0.9514
- Car9 expression level: 3.341
- Cbs expression level: 0.4189
- Ccl4 expression level: 0
- Cd68 expression level: 5.274
- Cd200 expression level: 0.3998
- Cherp expression level: 35.1454
- Clec2g expression level: 0
- Cnnm4 expression level: 11.9457
- Cox15 expression level: 15.3542
- Cpa2 expression level: 0.3127
- Ctrl expression level: 0.3422
- Dcun1d1 expression level: 6.457
- Defb42 expression level: 0.2302
- Dtx1 expression level: 0.2518
- Ehf expression level: 0.2831
- Ercc2 expression level: 13.8618
- Erh expression level: 2.728
- Fmnl1 expression level: 0.04415
- Gys2 expression level: 0
- Hist1h2ab expression level: 1.144
- Hist1h2bg expression level: 0.5636
- Hist1h2bh expression level: 0
- Hist1h4c expression level: 0
- Isl1 expression level: 0.2249
- Krt19 expression level: 14.9744
- Larp1b expression level: 2.787
- Lhx6 expression level: 3.883
- Lsm5 expression level: 0.9896
- M1ap expression level: 1.719
- Med9os expression level: 0.7826
- Nckipsd expression level: 15.4716
- Nr3c2 expression level: 0.1558
- Nr6a1 expression level: 0.3582
- Ntrk3 expression level: 0
- Parvg expression level: 0.1595
- Pde4dip expression level: 20.1604
- Psd4 expression level: 0.7259
- Ptpa expression level: 235.847
- Ptpn6 expression level: 2.532
- Rnu3a expression level: 0
- Rpph1 expression level: 0.655
- Rsad1 expression level: 1.447
- Saa1 expression level: 0.19
- Samd12 expression level: 0.7427
- Scn8a expression level: 0.3603
- Sgca expression level: 0.3791
- Slc15a4 expression level: 20.8062
- Slc16a5 expression level: 0.1731
- Snhg9 expression level: 3.721
- St7 expression level: 31.903
- Stmn1 expression level: 3.691
- Susd1 expression level: 2.151
- Syt8 expression level: 1.517
- Syt12 expression level: 0.9903
- Tldc2 expression level: 0.381
- Tnnc2 expression level: 0
- Unc5c expression level: 0.3264
- Wdr17 expression level: 0.7213
- Zbtb18 expression level: 5.623
- Zfp618 expression level: 1.668
- number of genes downregulated, FC ≥ 2: 566
- number of genes upregulated, FC ≥ 2: 601
- number of genes solely downregulated (FC ≥ 2): 159 (15%)
- number of genes solely upregulated (FC ≥ 2): 322 (21.4%)
